The test system of this test is procaspase-6 cleavage in HepG2 cells. As to the kind of experiment: Procaspase-6 cleavage induced by TNFα and CHX in HepG2 cells (IB). Type of test: cell-based. The conditions noted are these: 40 μM pretreatment 1 hr, then 30 μg/ml CHX and 50 ng/ml TNFα 2 hrs. Here is the method: FIGS. 15A-15F. AMPK phosphorylates caspase-6 and inhibits its cleavage. FIG. 15A. Caspase-6 activity was measure in the lysates from isolated primary hepatocytes treated with vehicle or 250 μM BSA-conjugated palmitic acid (PA) or 50 ng/ml TNFα for 2 hrs. Data are shown as mean±SD. *, P<0.05, Student's unpaired t test. FIG. 15B. HepG2 cells were pretreated with 40 μM A-769662 for 1 hr, and then treated with 30 μg/ml cycloheximide (CHX) and 50 ng/ml TNFα for 2 hrs. Cell lysates were subject to immunoblot (IB) analysis. FIG. 15C. In vitro kinase assay using purified caspase-6-mycexpressed in HEK293T cells, and recombinant AMPKα1β1γ1 active kinase. FIGS. 15D-15E. Flox and LAKO mice were fed with CD-HFD for 8 weeks. After 6 weeks of CD-HFD feeding, mice were intraperitoneally injected with 25 mg/kg A-769662 or vehicle daily for 2 weeks along with continuous CD-HFD feeding. FIG. 15D. […] Quantification of IB analysis in FIG. 15D. n=3. *, P<0.05, two-way ANOVA. […] Quantification of IB analysis in FIG. 5K. n=3. […]
Western blot was performed as previously described(11). […] Supernatants were collected and analyzed with BCA (Thermo Scientific) to quantify protein content. […] Individual proteins were detected with specific antibodies and visualized on film using horseradish peroxidase-conjugated secondary antibodies (Fisher Scientific) and SuperSignal West Pico PLUS Chemilunminescent Substrate (Thermo Scientific).

The values below come from US20220184172A1, “AMPK/CASPASE-6 AXIS CONTROLS LIVER DAMAGE IN NONALCOHOLIC STEATOHEPATITIS” (The Regents of the University of California, priority 2019, published 2022).

For `N#Cc1c(O)c2c(-c3ccc(-c4ccccc4O)cc3)csc2[nH]c1=O` [A-769662], the procaspase-6 cleavage result is listed as “significantly inhibited”.
